According to patent publication US6426229B1, “Chelating agent and detergent comprising the same” (Mitsubishi Rayon Co., Ltd., priority 1995, dated 2002):

Assay: Compression strength (hardening property) of powder stored under load for 2 months
Format: physicochemical
Settings: Load 100 (table head [Kg]; text 100 g/cm^2); 20-30° C., relative humidity 40-70%
Method: Method for the Measurement of Compression Strength
(1) A test sample (500 g) is put in a poly-ethylene bag of 20 cm×20 cm in a room at a temperature of 20-30° C. and a relative humidity of 40-70%. The powder is levelled to an area of 20 cm×20 cm and air is forced out of the bag, and, then, the bag is sealed. This bag is further put in a kraft bag and this kraft bag is sealed.
(2) The kraft bag of (1) is placed horizontally on a flat plate and a plate is put thereon. […]
(3) With keeping the temperature of 20-30° C. and the relative humidity of 40-70%, the test sample is taken out after lapse of 2 months from the starting of application of load. Several test pieces (4 cm long×4 cm broad×2 cm high) are cut out from the sample.

| SMILES | Compression strength after stored for 2 months [Kg/cm^2] |
| --- | --- |
| O=C(O)CN(CCS(=O)(=O)O)CC(=O)O [Example 37, taurine-N,N-diacetic acid] | 1.0 |
| CN(CC(=O)O)CC(=O)O [Example 38, N-methyliminodiacetic acid] | 1.1 |
| O=C(O)CN(CC(=O)O)c1ccccc1C(=O)O [Example 39, anthranilic acid-N,N-diacetic acid] | 1.2 |
| O=C([O-])CN(CC(=O)[O-])c1ccccc1C(=O)[O-].[Fe+3] [Example 44, iron salt of anthranilic acid-N,N-diacetic acid] | 1.0 |
| O=C([O-])CC(NCCNC(CC(=O)[O-])C(=O)[O-])C(=O)[O-].[Na+].[Na+].[Na+].[Na+] (stereo not shown) [Example 51, tetrasodium ethylenediaminedisuccinate] | 1.2 |
| O=C([O-])C[C@H](NCCN[C@@H](CC(=O)[O-])C(=O)[O-])C(=O)[O-].[Na+].[Na+].[Na+].[Na+] [Example 52, tetrasodium (S,S)-ethylenediaminedisuccinate] | 1.0 |
| O=C([O-])CC(NCCCNC(CC(=O)[O-])C(=O)[O-])C(=O)[O-].[Na+].[Na+].[Na+].[Na+] (stereo not shown) [Example 53, tetrasodium 1,3-propanediaminedisuccinate] | 0.8 |
| O=C([O-])C[C@H](NCCCN[C@@H](CC(=O)[O-])C(=O)[O-])C(=O)[O-].[Na+].[Na+].[Na+].[Na+] [Example 54, tetrasodium (S,S)-1,3-propanediaminedisuccinate] | 0.9 |
| O=C([O-])C[C@H](NCC(O)CN[C@@H](CC(=O)[O-])C(=O)[O-])C(=O)[O-].[Na+].[Na+].[Na+].[Na+] [Example 55, tetrasodium (S,S)-2-hydroxy-1,3-propanediaminedisuccinate] | 1.2 |
| O=C(O)C[C@H](NCCN[C@@H](CC(=O)O)C(=O)O)C(=O)O [Example 66, ethylenediaminedisuccinic acid] | 0.8 |
| O=C(O)C[C@H](NCCN[C@@H](CC(=O)O)C(=O)O)C(=O)O [Example 67, (S,S)-ethylenediaminedisuccinic acid] | 1.1 |
| O=C(O)CC(NCCCNC(CC(=O)O)C(=O)O)C(=O)O (stereo not shown) [Example 68, 1,3-propanediaminedisuccinic acid] | 1.2 |
| O=C(O)C[C@H](NCCCN[C@@H](CC(=O)O)C(=O)O)C(=O)O [Example 69, (S,S)-1,3-propanediaminedisuccinic acid] | 1.0 |
| O=C(O)C[C@H](NCC(O)CN[C@@H](CC(=O)O)C(=O)O)C(=O)O [Example 70, (S,S)-2-hydroxy-1,3-propanediaminedisuccinic acid] | 0.8 |

Same assay, conditions: Load 200 (table head [Kg]; text 200 g/cm^2); 20-30° C., relative humidity 40-70%

| SMILES | Compression strength after stored for 2 months [Kg/cm^2] |
| --- | --- |
| O=C(O)CN(CC(=O)O)c1ccccc1C(=O)O [Example 36, anthranilic acid-N,N-diacetic acid] | 0.9 |
| O=C([O-])CN(CC(=O)[O-])c1ccccc1C(=O)[O-].[Fe+3] [Example 43, iron salt of anthranilic acid-N,N-diacetic acid] | 0.9 |
| O=C([O-])CC(NCCNC(CC(=O)[O-])C(=O)[O-])C(=O)[O-].[Na+].[Na+].[Na+].[Na+] (stereo not shown) [Example 46, tetrasodium ethylenediaminedisuccinate] | 1.1 |
| O=C([O-])C[C@H](NCCN[C@@H](CC(=O)[O-])C(=O)[O-])C(=O)[O-].[Na+].[Na+].[Na+].[Na+] [Example 47, tetrasodium (S,S)-ethylenediaminedisuccinate] | 1.2 |
| O=C([O-])CC(NCCCNC(CC(=O)[O-])C(=O)[O-])C(=O)[O-].[Na+].[Na+].[Na+].[Na+] (stereo not shown) [Example 48, tetrasodium 1,3-propanediaminedisuccinate] | 1.0 |
| O=C([O-])C[C@H](NCCCN[C@@H](CC(=O)[O-])C(=O)[O-])C(=O)[O-].[Na+].[Na+].[Na+].[Na+] [Example 49, tetrasodium (S,S)-1,3-propanediaminedisuccinate] | 1.3 |
| O=C([O-])C[C@H](NCC(O)CN[C@@H](CC(=O)[O-])C(=O)[O-])C(=O)[O-].[Na+].[Na+].[Na+].[Na+] [Example 50, tetrasodium (S,S)-2-hydroxy-1,3-propanediaminedisuccinate] | 1.2 |
| O=C(O)C[C@H](NCCN[C@@H](CC(=O)O)C(=O)O)C(=O)O [Example 61, ethylenediaminedisuccinic acid] | 0.9 |
| O=C(O)C[C@H](NCCN[C@@H](CC(=O)O)C(=O)O)C(=O)O [Example 62, (S,S)-ethylenediaminedisuccinic acid] | 1.0 |
| O=C(O)CC(NCCCNC(CC(=O)O)C(=O)O)C(=O)O (stereo not shown) [Example 63, 1,3-propanediaminedisuccinic acid] | 1.1 |
| O=C(O)C[C@H](NCCCN[C@@H](CC(=O)O)C(=O)O)C(=O)O [Example 64, (S,S)-1,3-propanediaminedisuccinic acid] | 0.9 |
| O=C(O)C[C@H](NCC(O)CN[C@@H](CC(=O)O)C(=O)O)C(=O)O [Example 65, (S,S)-2-hydroxy-1,3-propanediaminedisuccinic acid] | 1.0 |
| O=C([O-])CC(NCCNC(CC(=O)[O-])C(=O)[O-])C(=O)[O-].[Fe+3].[NH4+] (stereo not shown) [Example 76, iron ammonium ethylenediaminedisuccinate] | 1.1 |
| O=C([O-])CC(NCCNC(CC(=O)[O-])C(=O)[O-])C(=O)[O-].[Cu+2].[Na+].[Na+] (stereo not shown) [Example 77, copper disodium ethylenediaminedisuccinate] | 1.2 |
| O=C([O-])CC(NCCNC(CC(=O)[O-])C(=O)[O-])C(=O)[O-].[Na+].[Na+].[Ni+2] (stereo not shown) [Example 78, nickel disodium ethylenediaminedisuccinate] | 1.0 |
| O=C([O-])C[C@H](NCCN[C@@H](CC(=O)[O-])C(=O)[O-])C(=O)[O-].[Fe+3].[NH4+] [Example 79, iron ammonium (S,S)-ethylenediaminedisuccinate] | 0.9 |

Same assay, conditions: Load 300 (table head [Kg]; text 300 g/cm^2); 20-30° C., relative humidity 40-70%

| SMILES | Compression strength after stored for 2 months [Kg/cm^2] |
| --- | --- |
| O=C(O)CN(CCS(=O)(=O)O)CC(=O)O [Example 40, taurine-N,N-diacetic acid] | 0.9 |
| CN(CC(=O)O)CC(=O)O [Example 41, N-methyliminodiacetic acid] | 1.0 |
| O=C(O)CN(CC(=O)O)c1ccccc1C(=O)O [Example 42, anthranilic acid-N,N-diacetic acid] | 1.1 |
| O=C([O-])CC(NCCNC(CC(=O)[O-])C(=O)[O-])C(=O)[O-].[Na+].[Na+].[Na+].[Na+] (stereo not shown) [Example 56, tetrasodium ethylenediaminedisuccinate] | 0.8 |
| O=C([O-])C[C@H](NCCN[C@@H](CC(=O)[O-])C(=O)[O-])C(=O)[O-].[Na+].[Na+].[Na+].[Na+] [Example 57, tetrasodium (S,S)-ethylenediaminedisuccinate] | 0.9 |
| O=C([O-])CC(NCCCNC(CC(=O)[O-])C(=O)[O-])C(=O)[O-].[Na+].[Na+].[Na+].[Na+] (stereo not shown) [Example 58, tetrasodium 1,3-propanediaminedisuccinate] | 1.0 |
| O=C([O-])C[C@H](NCCCN[C@@H](CC(=O)[O-])C(=O)[O-])C(=O)[O-].[Na+].[Na+].[Na+].[Na+] [Example 59, tetrasodium (S,S)-1,3-propanediaminedisuccinate] | 1.1 |
| O=C([O-])C[C@H](NCC(O)CN[C@@H](CC(=O)[O-])C(=O)[O-])C(=O)[O-].[Na+].[Na+].[Na+].[Na+] [Example 60, tetrasodium (S,S)-2-hydroxy-1,3-propanediaminedisuccinate] | 1.2 |
| O=C(O)C[C@H](NCCN[C@@H](CC(=O)O)C(=O)O)C(=O)O [Example 71, ethylenediaminedisuccinic acid] | 1.2 |
| O=C(O)C[C@H](NCCN[C@@H](CC(=O)O)C(=O)O)C(=O)O [Example 72, (S,S)-ethylenediaminedisuccinic acid] | 1.3 |
| O=C(O)CC(NCCCNC(CC(=O)O)C(=O)O)C(=O)O (stereo not shown) [Example 73, 1,3-propanediaminedisuccinic acid] | 1.1 |
| O=C(O)C[C@H](NCCCN[C@@H](CC(=O)O)C(=O)O)C(=O)O [Example 74, (S,S)-1,3-propanediaminedisuccinic acid] | 1.2 |
| O=C(O)C[C@H](NCC(O)CN[C@@H](CC(=O)O)C(=O)O)C(=O)O [Example 75, (S,S)-2-hydroxy-1,3-propanediaminedisuccinic acid] | 1.0 |
